Measured values taken from US20200339509A1, “Non-Coordinating Anion Type Indolinium Activators in Aliphatic and Alicyclic Hydrocarbon Solvents” (ExxonMobil Chemical Patents Inc., priority 2019, published 2020).
Where “and” joins values, the source holds several entries; their conditions need not be identical. Equal entries are not always repeated.

What was measured:
[1] = Propylene homopolymerization in parallel pressure reactor with the indicated activator; details: propylene polymerization; 30 nmol catalyst MCN-1, 1.1 equivalents activator, 100° C., 150 psi propylene
Experimental: Solutions of the metal complexes and activators were prepared in a drybox using toluene or methylcyclohexane. Concentrations were typically 0.2 mmol/L. Tri-n-octylaluminum (TNOAL, neat, AkzoNobel) was used as a scavenger as indicated. Concentration of the TNOAL solution in toluene ranged from 0.5 to 2.0 mmol/L.
Polymerizations were carried out in a parallel pressure reactor according to common laboratory techniques, as generally described in U.S. Pat. Nos. 6,306,658; 6,455,316; 6,489,168; WO 00/09255; consistent with the procedures described by Murphy, V. et al. (2003) “A Fully Integrated High-Throughput Screening Methodology for the Discovery of New Polyolefin Catalysts: Discovery of a New Class of High Temperature Single-Site Group (IV) Copolymerization Catalysts,” J. Am. Chem. Soc., v. 125, pp. 4306-4317, each of which is fully incorporated herein by reference. The experiments were conducted in an inert atmosphere (N2) drybox using autoclaves equipped with an external heater for temperature control, glass inserts (internal volume of reactor=23.5 mL for C2 and C2/C8; 22.5 mL for C3 runs), septum inlets, regulated supply of nitrogen, ethylene and propylene, and equipped with disposable PEEK mechanical stirrers (800 RPM). The autoclaves were prepared by purging with dry nitrogen at 110° C. or 115° C. for 5 hours and then at 25° C. for 5 hours. Although the specific quantities, temperatures, solvents, reactants, reactant ratios, pressures, and other variables are frequently changed from one polymerization run to the next, the following describes a typical polymerization performed in a parallel pressure reactor. […]
The catalyst and activator solutions for the comparative data were all prepared in toluene. […] The resultant polymer was analyzed by Rapid GPC (see below) to determine the molecular weight, by FT-IR (see below) to determine percent octene incorporation, and by DSC (see below) to determine melting point (Tm).
Equivalence is determined based on the mole equivalents relative to the moles of the transition metal in the catalyst complex. […]

[2] = Solubility study of the activators (saturated solution in aliphatic/alicyclic solvent); format: physicochemical; details: 25° C., concentration of saturated solution; for Solubility limit in MeCy: MeCy (methylcyclohexane)
Experimental: The solubility was determined using a saturated solution of the activator prepared by slowly adding the solvent to a pre-weighed amount of the activator. The final volume was determined as the minimum amount of solvent required to convert the heterogenous mixture into a homogeneous solution. The concentration of the saturated solution is presented in millimoles of activator per liter of solution (mM). Alternatively, a mixture of the activator was prepared by adding the solvent to an excess amount of activator. The resulting slurry was separated from the undissolved solids by decanting the mixture into a tared vial. Solvent was then added dropwise until the mixture became a homogeneous solution. The mass of the final solution was measured and then the solvent was evaporated to dryness to obtain the mass of the activator. The concentration of the saturated solution is presented in millimoles of activator per liter of solution (mM).

1-methylindolinium tetrakis(heptafluoronaphthalen-2-yl)borate [MIH-BF28]
activity [1]: 64 kg/mmol/h and 39 kg/mmol/h and 46 kg/mmol/h

C[NH+](C)c1ccccc1.Fc1c(F)c(F)c([B-](c2c(F)c(F)c(F)c(F)c2F)(c2c(F)c(F)c(F)c(F)c2F)c2c(F)c(F)c(F)c(F)c2F)c(F)c1F [DMAH-BF20, N,N-Dimethylanilinium tetrakis(pentafluorophenyl) borate, reference compound]
Solubility limit in MeCy [2]: <100 µM
Solubility limit in i-hexane [2]: <100 µM

CCCCCCCCCCC1C[NH+](C)c2ccccc21.Fc1c(F)c(F)c2c(F)c([B-](c3c(F)c(F)c4c(F)c(F)c(F)c(F)c4c3F)(c3c(F)c(F)c4c(F)c(F)c(F)c(F)c4c3F)c3c(F)c(F)c4c(F)c(F)c(F)c(F)c4c3F)c(F)c(F)c2c1F [MDIH-BF28, 3-decyl-1-methylindolin-1-ium BF-28]
Solubility limit in MeCy [2]: 10100 µM
Solubility limit in i-hexane [2]: 1000 µM

C[NH+]1CCc2ccccc21.Fc1c(F)c(F)c([B-](c2c(F)c(F)c(F)c(F)c2F)(c2c(F)c(F)c(F)c(F)c2F)c2c(F)c(F)c(F)c(F)c2F)c(F)c1F [MIH-BF20, 1-methylindolinium tetrakis(pentafluorophenyl) borate]
activity [1]: 7 kg/mmol/h
Solubility limit in MeCy [2]: 5300 µM
Solubility limit in i-hexane [2]: <100 µM

N,N-dimethyl anilinium tetrakis(heptafluoronaphthalen-2-yl)borate [DMAH-BF28, reference compound]
activity [1]: 126 kg/mmol/h and 182 kg/mmol/h and 196 kg/mmol/h and 164 kg/mmol/h
